Source: patent publication US8415469B2, “Compounds and methods for kinase modulation, and indications therefor” (Plexxikon Inc., priority 2005, dated 2013)

Columns and labels:
Format in all cases: biochemical
[1] = target: IGF1R (Homo sapiens, UniProt P08069); assay: AlphaScreen kinase assay, IGF1R; settings: read-out: IC50, activity toward kinase IGF1R
[2] = target: T1, Stk6 (Homo sapiens, UniProt O14965); assay: Z'-Lyte FRET kinase assay (Invitrogen), Stk6; settings: read-out: IC50, activity toward kinase Stk6
T1 construct: purchased Invitrogen (Carlsbad, Calif.), screening service
T1 sequence (O14965 1-403): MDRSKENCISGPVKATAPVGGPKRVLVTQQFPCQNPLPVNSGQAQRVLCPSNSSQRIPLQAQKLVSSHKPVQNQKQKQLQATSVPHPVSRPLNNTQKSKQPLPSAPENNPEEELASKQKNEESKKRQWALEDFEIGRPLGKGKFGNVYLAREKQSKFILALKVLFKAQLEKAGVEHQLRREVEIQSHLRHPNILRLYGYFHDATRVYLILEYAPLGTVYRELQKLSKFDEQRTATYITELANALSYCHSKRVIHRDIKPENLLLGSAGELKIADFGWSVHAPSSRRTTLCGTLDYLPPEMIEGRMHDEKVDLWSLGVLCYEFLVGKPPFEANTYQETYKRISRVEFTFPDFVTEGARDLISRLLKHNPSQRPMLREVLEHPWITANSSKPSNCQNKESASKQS

[3] = target: T2, PKC theta (Homo sapiens, UniProt Q04759); assay: Z'-Lyte FRET kinase assay (Invitrogen), PKC theta; settings: read-out: IC50, activity toward kinase PKC theta
T2 construct: purchased Invitrogen (Carlsbad, Calif.), screening service
In short: (§1)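 Serially diluted compound (1% DMSO final) is mixed with kinase plus 2 μM peptide substrate in pH 7.5 HEPES buffer, then ATP is added to 10 μM. After 1 h at room temperature, site-specific protease is added for another hour, reactions are stopped and fluorescence ratio measured.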

[4] = target: T3, Kdr (Homo sapiens, UniProt P35968); assay: Z'-Lyte FRET kinase assay (Invitrogen), Kdr; settings: read-out: IC50, activity toward kinase Kdr
T3 construct: purchased Invitrogen (assay run by Invitrogen)

[5] = target: T4, Erk2 (Homo sapiens, UniProt P28482); assay: AlphaScreen kinase assay, Erk2; settings: read-out: IC50, activity toward kinase Erk2
T4 construct: P4227.pET15S ERK2/MEK1DD; His6 with thrombin site (N); made in house
T4 sequence (P28482 with tags, fused parts or gaps): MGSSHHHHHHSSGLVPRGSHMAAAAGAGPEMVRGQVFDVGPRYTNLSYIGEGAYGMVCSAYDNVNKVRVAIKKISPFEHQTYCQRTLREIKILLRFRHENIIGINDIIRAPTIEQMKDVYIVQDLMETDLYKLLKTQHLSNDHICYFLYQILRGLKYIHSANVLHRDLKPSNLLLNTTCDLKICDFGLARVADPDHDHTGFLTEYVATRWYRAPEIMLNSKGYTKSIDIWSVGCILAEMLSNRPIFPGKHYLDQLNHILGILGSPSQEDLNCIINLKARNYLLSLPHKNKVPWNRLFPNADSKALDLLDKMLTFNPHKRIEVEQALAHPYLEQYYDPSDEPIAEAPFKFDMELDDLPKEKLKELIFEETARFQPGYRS
Excerpt: AlphaScreen assay was used to screen additional kinases. The assay is similarly dependent on the phosphorylation of a peptide substrate. In this assay, an antibody that recognizes phosphorylated substrate is bound to an acceptor bead. The peptide substrate is attached to biotin, which binds to a donor head that contains streptavidin. Thus phosphorylated substrate is bound by antibody and streptavidin, bringing the donor and acceptor heads into close proximity when kinase is not inhibited. The donor produces singlet oxygen which results in emission from the acceptor when they are in close proximity. Conversely, when kinase is inhibited, the donor and acceptor beads are not associated and the emission from the acceptor is reduced.
AlphaScreen assays were done using compounds dissolved in DMSO to a concentration of 20 mM. The compounds were diluted accordingly to the desired final concentrations in each sample well, using 1:3 serial dilution for a total of 8 concentration points.

[6] = target: Plk1 (Homo sapiens, UniProt P53350); assay: AlphaScreen kinase assay, Plk1; settings: read-out: IC50, activity toward kinase Plk1
Chain of Plk1 (P53350 whole entry): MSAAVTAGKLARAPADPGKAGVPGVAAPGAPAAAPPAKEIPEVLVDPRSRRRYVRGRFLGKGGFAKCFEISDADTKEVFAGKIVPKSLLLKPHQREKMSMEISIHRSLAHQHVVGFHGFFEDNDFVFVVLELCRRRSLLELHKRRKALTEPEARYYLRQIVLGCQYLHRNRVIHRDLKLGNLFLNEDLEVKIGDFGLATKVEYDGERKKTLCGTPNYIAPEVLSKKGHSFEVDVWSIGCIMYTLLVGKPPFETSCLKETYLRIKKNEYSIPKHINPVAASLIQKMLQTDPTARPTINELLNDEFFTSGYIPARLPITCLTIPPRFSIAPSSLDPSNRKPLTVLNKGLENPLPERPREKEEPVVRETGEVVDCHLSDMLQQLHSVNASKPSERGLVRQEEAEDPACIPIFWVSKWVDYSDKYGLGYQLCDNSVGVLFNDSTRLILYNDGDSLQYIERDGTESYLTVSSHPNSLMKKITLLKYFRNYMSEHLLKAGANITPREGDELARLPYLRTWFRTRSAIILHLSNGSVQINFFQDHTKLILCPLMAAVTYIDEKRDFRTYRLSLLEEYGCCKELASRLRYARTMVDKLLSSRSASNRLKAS
In short: (§2)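 Here, phosphorylation of a biotin-tagged peptide was sensed by proximity of streptavidin donor and antibody-bearing acceptor beads. Test compounds covered 8 concentrations by 1:3 serial dilution of 20 mM DMSO stocks.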

[7] = target: T5, Itk (Homo sapiens, UniProt Q08881); assay: AlphaScreen kinase assay, Itk; settings: read-out: IC50, activity toward kinase Itk
T5 sequence (Q08881 1-620): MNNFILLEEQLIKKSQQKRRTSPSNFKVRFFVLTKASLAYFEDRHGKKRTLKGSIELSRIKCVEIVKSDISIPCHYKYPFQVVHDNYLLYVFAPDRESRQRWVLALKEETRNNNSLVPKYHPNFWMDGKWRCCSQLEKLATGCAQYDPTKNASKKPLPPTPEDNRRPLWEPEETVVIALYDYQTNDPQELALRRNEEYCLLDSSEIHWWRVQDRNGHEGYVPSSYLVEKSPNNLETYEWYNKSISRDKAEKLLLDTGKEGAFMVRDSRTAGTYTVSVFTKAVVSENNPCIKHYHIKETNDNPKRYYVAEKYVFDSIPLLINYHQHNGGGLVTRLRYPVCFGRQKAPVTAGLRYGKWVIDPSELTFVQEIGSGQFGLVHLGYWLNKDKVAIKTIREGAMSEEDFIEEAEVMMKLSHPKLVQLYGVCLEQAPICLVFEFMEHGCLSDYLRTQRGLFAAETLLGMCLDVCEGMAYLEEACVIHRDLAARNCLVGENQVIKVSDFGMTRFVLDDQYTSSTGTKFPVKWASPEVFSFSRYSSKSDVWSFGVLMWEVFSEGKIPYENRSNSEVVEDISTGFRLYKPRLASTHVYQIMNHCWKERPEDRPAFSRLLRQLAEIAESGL
In short: as §2

[8] = target: T6, Yes (Homo sapiens, UniProt P07947); assay: Z'-Lyte FRET kinase assay (Invitrogen), Yes; settings: read-out: IC50, activity toward kinase Yes
T6 construct: purchased Invitrogen (Carlsbad, Calif.), screening service
T6 sequence (P07947 whole entry): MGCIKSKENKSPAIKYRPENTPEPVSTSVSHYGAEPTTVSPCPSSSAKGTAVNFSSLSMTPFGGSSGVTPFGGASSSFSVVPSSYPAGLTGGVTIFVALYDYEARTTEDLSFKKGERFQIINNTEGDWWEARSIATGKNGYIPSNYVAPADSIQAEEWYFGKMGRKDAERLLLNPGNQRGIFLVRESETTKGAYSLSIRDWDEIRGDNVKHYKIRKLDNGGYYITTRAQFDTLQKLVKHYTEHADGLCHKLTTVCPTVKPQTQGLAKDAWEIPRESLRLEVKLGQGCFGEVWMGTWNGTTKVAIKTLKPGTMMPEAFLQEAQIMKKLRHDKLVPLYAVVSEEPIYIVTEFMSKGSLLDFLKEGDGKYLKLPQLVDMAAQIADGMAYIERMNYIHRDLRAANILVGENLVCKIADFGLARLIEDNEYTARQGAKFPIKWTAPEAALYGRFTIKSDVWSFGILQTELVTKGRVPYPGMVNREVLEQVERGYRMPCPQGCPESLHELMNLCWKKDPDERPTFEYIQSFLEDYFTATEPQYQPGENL
In short: as §1

[9] = target: T7, Btk (Homo sapiens, UniProt Q06187); assay: Z'-Lyte FRET kinase assay (Invitrogen), Btk; settings: read-out: IC50, activity toward kinase Btk
T7 construct: purchased Invitrogen (assay run by Invitrogen)
T7 sequence (Q06187 whole entry): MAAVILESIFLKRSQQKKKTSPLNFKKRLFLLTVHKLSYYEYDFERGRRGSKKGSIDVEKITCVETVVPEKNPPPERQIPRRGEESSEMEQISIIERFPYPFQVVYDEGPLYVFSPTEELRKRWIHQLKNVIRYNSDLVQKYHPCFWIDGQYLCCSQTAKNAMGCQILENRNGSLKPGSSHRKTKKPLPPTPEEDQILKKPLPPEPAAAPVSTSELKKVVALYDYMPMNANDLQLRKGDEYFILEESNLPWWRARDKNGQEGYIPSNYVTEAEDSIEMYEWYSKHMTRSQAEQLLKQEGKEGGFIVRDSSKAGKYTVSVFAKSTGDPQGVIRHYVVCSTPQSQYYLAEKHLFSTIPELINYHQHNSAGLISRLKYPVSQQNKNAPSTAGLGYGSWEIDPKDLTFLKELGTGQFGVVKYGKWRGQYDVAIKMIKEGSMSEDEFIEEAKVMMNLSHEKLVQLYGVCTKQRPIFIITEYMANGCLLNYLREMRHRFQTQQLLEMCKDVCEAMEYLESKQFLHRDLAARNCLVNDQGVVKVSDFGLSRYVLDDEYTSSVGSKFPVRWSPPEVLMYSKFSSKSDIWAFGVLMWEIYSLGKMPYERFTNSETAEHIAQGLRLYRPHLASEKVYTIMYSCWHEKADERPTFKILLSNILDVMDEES

[10] = target: T8, MAP2K1 (Homo sapiens, UniProt Q02750); assay: Z'-Lyte FRET kinase assay (Invitrogen), MAP2K1; settings: read-out: IC50, activity toward kinase MAP2K1
T8 construct: purchased Invitrogen (assay run by Invitrogen)

[11] = target: T9, Jnk3 (Homo sapiens, UniProt P53779); assay: AlphaScreen kinase assay, Jnk3; settings: read-out: IC50, activity toward kinase Jnk3
T9 construct: purchased Upstate Biotechnology

[12] = target: T10, Kit (Homo sapiens, UniProt P10721); assay: AlphaScreen kinase assay, Kit; settings: read-out: IC50, activity toward kinase Kit
T10 construct: P1332.N6 BI PTP KIT M552-K948-X COD; His6 (N); made in house; host or cells: E. coli (PTP1B co-expressed)
T10 sequence (P10721 with tags, fused parts or gaps): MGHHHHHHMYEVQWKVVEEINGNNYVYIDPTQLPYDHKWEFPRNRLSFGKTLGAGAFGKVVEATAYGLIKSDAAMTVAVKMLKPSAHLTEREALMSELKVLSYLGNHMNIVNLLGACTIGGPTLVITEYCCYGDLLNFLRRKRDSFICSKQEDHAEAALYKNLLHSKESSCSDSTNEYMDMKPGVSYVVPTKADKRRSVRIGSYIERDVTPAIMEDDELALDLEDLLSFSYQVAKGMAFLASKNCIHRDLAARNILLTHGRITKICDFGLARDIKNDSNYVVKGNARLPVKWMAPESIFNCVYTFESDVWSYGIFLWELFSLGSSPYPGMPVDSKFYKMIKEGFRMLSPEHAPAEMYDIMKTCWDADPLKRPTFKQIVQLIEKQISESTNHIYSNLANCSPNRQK

[13] = target: Akt3 (Homo sapiens, UniProt Q9Y243); assay: AlphaScreen kinase assay, Akt3; settings: read-out: IC50, activity toward kinase Akt3
Chain of Akt3 (Q9Y243 whole entry): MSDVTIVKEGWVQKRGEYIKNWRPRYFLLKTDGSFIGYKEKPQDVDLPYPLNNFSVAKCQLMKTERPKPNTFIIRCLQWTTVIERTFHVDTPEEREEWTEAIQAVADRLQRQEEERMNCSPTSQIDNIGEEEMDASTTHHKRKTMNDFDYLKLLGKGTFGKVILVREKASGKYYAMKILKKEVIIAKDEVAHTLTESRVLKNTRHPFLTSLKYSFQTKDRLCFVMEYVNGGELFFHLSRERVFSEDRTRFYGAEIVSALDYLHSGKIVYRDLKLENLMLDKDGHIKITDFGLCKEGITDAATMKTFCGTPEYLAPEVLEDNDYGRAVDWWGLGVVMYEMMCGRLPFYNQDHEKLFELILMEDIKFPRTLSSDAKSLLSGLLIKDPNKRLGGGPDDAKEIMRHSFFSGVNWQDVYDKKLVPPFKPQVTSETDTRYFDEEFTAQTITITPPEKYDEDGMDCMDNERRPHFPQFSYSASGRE
In short: as §2

[14] = target: T11, Flt1 (Homo sapiens, UniProt P17948); assay: AlphaScreen kinase assay, Flt1; settings: read-out: IC50, activity toward kinase Flt1
T11 construct: P1826.pETN6 BI-PTP FLT1 M799-D1165-X WT; His6 (N); made in house; host or cells: E. coli (PTP1B co-expressed)
T11 sequence (P17948 with tags, fused parts or gaps): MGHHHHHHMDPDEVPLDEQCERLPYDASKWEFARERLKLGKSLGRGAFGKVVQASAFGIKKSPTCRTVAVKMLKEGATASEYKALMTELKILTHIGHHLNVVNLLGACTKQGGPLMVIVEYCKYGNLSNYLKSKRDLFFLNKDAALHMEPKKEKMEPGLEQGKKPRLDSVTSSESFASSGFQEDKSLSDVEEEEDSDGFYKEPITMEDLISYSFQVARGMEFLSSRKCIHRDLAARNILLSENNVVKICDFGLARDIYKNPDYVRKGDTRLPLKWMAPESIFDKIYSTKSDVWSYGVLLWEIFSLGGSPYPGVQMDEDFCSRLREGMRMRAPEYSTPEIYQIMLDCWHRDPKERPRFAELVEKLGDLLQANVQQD

[15] = target: Gsk3β (Homo sapiens, UniProt P49841); assay: AlphaScreen kinase assay, Gsk3β; settings: read-out: IC50, activity toward kinase Gsk3β
Chain of Gsk3β (P49841 whole entry): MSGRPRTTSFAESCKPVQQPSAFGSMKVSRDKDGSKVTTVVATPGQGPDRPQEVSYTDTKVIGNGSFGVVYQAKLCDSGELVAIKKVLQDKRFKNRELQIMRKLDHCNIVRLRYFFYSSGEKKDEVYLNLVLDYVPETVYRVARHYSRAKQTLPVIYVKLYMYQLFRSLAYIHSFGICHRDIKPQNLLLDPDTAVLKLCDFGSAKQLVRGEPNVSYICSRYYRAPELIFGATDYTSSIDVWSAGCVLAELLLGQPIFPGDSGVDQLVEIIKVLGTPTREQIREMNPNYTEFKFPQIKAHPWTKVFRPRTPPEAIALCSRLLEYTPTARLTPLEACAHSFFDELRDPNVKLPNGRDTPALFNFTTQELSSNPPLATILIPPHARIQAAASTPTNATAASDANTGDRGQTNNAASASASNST
In short: as §2

Chain of IGF1R (P08069 31-1367): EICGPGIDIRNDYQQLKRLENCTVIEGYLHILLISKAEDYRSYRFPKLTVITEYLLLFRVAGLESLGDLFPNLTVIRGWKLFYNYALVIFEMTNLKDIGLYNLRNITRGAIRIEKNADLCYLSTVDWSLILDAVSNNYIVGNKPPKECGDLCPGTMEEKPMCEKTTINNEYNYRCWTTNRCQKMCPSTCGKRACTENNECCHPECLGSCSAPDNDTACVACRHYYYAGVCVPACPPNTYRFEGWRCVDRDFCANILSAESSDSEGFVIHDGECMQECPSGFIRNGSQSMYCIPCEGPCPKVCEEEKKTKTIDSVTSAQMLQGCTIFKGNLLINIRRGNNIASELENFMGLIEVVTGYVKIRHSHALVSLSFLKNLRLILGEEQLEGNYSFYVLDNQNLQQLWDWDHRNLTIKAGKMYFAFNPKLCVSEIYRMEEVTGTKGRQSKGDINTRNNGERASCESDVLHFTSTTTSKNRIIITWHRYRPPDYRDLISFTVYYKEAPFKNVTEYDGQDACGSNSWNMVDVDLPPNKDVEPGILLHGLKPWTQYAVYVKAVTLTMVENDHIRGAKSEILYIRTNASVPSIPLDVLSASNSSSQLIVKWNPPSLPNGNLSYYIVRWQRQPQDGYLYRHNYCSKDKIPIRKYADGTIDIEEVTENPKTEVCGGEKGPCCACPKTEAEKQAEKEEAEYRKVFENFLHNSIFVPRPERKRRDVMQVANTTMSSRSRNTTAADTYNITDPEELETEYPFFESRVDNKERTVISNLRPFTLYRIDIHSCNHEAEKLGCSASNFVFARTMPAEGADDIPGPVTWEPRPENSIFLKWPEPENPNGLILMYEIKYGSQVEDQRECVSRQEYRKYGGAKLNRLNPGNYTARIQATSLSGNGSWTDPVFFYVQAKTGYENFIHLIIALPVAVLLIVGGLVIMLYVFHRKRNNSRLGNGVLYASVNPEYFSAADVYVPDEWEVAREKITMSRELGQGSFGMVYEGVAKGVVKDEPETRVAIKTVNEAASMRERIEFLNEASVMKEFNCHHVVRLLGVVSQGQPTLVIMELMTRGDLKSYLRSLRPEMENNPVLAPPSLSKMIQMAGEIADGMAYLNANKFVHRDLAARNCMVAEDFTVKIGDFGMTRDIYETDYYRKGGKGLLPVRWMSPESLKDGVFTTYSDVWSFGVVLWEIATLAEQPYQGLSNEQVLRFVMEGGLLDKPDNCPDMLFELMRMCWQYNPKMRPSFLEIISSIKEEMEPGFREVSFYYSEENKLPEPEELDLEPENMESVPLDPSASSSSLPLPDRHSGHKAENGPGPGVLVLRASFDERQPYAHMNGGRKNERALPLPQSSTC

| IC50 [1] [µM] | IC50 [2] [µM] | IC50 [3] [µM] | IC50 [4] [µM] | IC50 [5] [µM] | IC50 [6] [µM] | IC50 [7] [µM] | IC50 [8] [µM] | IC50 [9] [µM] | IC50 [10] [µM] | IC50 [11] [µM] | IC50 [12] [µM] | IC50 [13] [µM] | IC50 [14] [µM] | IC50 [15] [µM] | SMILES |
| --- | --- | --- | --- | --- | --- | --- | --- | --- | --- | --- | --- | --- | --- | --- | --- |
| ≤ 10 | ≤ 10 | ≤ 10 | ≤ 10 | ≤ 10 | ≤ 10 | ≤ 10 | ≤ 10 | ≤ 10 | ≤ 10 | ≤ 10 | ≤ 10 | – | – | – | Cc1cc(C)cc(-c2ccnc3[nH]cc(C=O)c23)c1 [Compound P-0031] |
| ≤ 10 | ≤ 10 | – | – | ≤ 10 | ≤ 10 | – | – | – | – | – | ≤ 10 | ≤ 10 | ≤ 10 | ≤ 10 | Cc1cccc(-c2ccnc3[nH]cc(CNS(=O)(=O)C(F)(F)F)c23)c1 [Compound P-0154] |
